Test results as given in paper PMC11241262, “Unravelling the Antifibrinolytic Mechanism of Action of the 1,2,3-Triazole Derivatives” (International Journal of Molecular Sciences, 2024).
Converted amounts (≈) assume the structure as drawn.

Assays:
[1] = target: T1, tissue-type plasminogen activator (tPA) (Homo sapiens, UniProt P00750); test: tPA activity assay (chromogenic substrate); format: biochemical
T1 construct: purchased abcam
Description: Tris hydrochloride, 1M, pH = 7.5 solution (Thermo Fisher Scientific, Waltham, MA, USA) was used as buffer. […] Recombinant human Tissue Plasminogen Activator (abcam, Cambridge, UK) served as the source of tPA, and was stored at −20 °C until used.
The assay measures the inhibition of tPA’s catalytic domain by the tested compounds employing a chromogenic substrate. Different concentrations of the studied molecules were incubated with tPA in a 96-well plate at 37 °C for 10 min. […] After, 20 μL of tPA’s substrate was added to each well. […] The slope for each assay was obtained from the initial and final absorbance values and their respective time points, or until complete substrate cleavage was achieved. (3) Absorbance slope=Abs2−Abs1/t2−t1
The Relative tPA Inhibition for each condition was calculated using Equation (2). Then, the Relative tPA Activity (%) was calculated by subtracting the relative tPA inhibition of each concentration from the total activity of the enzyme, obtained from a control without a compound.

[2] = in vivo; conditions: both sexes, Wistar, rat, iv
Description: A MTD study was performed for compound 5 in Wistar rats and Beagle dogs. A total of 25 male and 25 female Wistar rats were received in the experimental room and acclimatized for a period of 5 days prior to randomization. The environmental and housing conditions maintained during the experiment were identical to those described in the pharmacokinetic study. At the start of dosing, rats were between 6 and 7 w.o., and their body weight varied no more than ±20% from the mean body weight for each sex. During randomization, 20 male and 20 female rats were selected for the study, which were randomly allocated to four different dose level groups: D1, D2, D3, and D4. Each group consisted of 5 male and 5 female rats. The remaining 5 male and 5 female rats were returned to the animal facility.
Dose formulations of compound 5 were administered by an intravenous bolus injection through the tail vein, using a sterile needle attached to a graduated syringe. Sterile water also served as a vehicle in the MTD assay. A fixed dose volume of 5 mL/kg b. wt. was used, and individual doses were adjusted according to the most recent recorded body weight of each rat. […]
Rats were subjected to twice-daily monitoring for clinical, mortality, and morbidity signs throughout the study. […] Body weight was recorded on days 1 (before treatment), 4, 8, 11, and 14 of the study. […]

[3] = system: whole blood clot formation; test: Whole blood coagulation assay (clot formation, no exogenous tPA); parameters: species or system human; conditions: 40 µM, 37 °C, fibrinolysis not triggered
Description: Blood was obtained by venipuncture from healthy donors after they signed an informed consent form. Blood was transferred into vacuum non-anticoagulant Vacutainer® tubes (BD, Franklin Lakes, NJ, USA). Blood samples were immediately used for the assay after extraction.
Prior to blood addition, 20 µL of the evaluated compounds was added to glass tubes, in a final concentration of 40 µM. As a control clot, 20 µL of Tris HCl buffer with no compound was used. Next, 800 µL of blood was transferred to each tube followed by casual shaking to ensure proper mixing. Tubes were incubated at 37 °C for 30 min to allow clot formation and posterior lysis. Blood clotting and lysis were visually monitored and photographs were taken after 30 min.

[4] = in vivo; conditions: dog, iv, 5 mg/kg; for Morbidity / Mortality: 24 h
Description: For the pharmacokinetic study in Beagle dogs, a total of 3 male and 3 female dogs were selected. They were acclimatized for 5 days before dosing and at the start of dosing, dogs were between 36 and 37 months old. […] Sterile water was also selected as a vehicle for injection of compound 5. […] A constant dose volume of 1 mL/kg body weight was administered, adjusted according to the most recently recorded body weight of each dog. A single dose of 5 mg/kg b. wt. was selected in the case of dogs.
Blood collection, plasma separation, and storage procedures were conducted following the same procedure as described for rats. Blood samples (600 µL) were collected from the cephalic vein of the forelimb for each dog. However, the concentration of compound 5 was determined using LC-MS/MS analysis. A column with identical characteristics to the one used in rats was employed, with a flow rate of 0.65 mL/min, a binary elution mode, and a run time of 6.0 min. Plasma samples were analyzed to determine the concentration of the active ingredient, and subsequently, the pharmacokinetic parameters were calculated. After a washout period of 7 days, dogs were returned back to stock.

[5] = target: T2, plasminogen (Homo sapiens, UniProt P00747); test: Plasminogen activation assay (conversion of plasminogen into plasmin by tPA in the absence of fibrin); format: biochemical
T2 construct: purchased abcam
Description: The conversion rate of plasminogen to plasmin was assessed using the Tissue-Type Plasminogen Activator Activity Assay Kit (abcam), following the manufacturer’s instructions. The assay measures the ability of tPA to activate plasminogen to plasmin in the presence of the tested compounds using a chromogenic substrate.
A solution of plasminogen and plasmin substrate was mixed with a previously prepared solution of the studied compound and tPA in Tris HCl buffer in a 96-well plate. The final concentration of tPA in each well was 6.8 µg/mL, in a final volume of 100 µL. Absorbance was measured on a microplate reader at a wavelength of 405 nm every minute at 37 °C for 2 h or until the system reached saturation. The absorbance slope of each sample was determined using Equation (3). The Relative Plasminogen Activation (%) for each condition was calculated with Equation (4), using a control without a compound (enzyme control). (4) Relative Plasminogen Activation (%)=SlopeCompound−SlopeControl/SlopeControl×100
Values were fitted to a linear model using MATLAB R2023a (The Math Works Inc., Natick, MA, USA). Concentrations at which each compound was able to increase plasminogen’s conversion by 50% in comparison to the enzyme control were extracted and compared for the three molecules.

[6] = Maximum solubility in plasmin assay; format: physicochemical; conditions: Tris HCl buffer (plasmin activity assay solution), pH 7.5

T1 sequence (P00750 36-562): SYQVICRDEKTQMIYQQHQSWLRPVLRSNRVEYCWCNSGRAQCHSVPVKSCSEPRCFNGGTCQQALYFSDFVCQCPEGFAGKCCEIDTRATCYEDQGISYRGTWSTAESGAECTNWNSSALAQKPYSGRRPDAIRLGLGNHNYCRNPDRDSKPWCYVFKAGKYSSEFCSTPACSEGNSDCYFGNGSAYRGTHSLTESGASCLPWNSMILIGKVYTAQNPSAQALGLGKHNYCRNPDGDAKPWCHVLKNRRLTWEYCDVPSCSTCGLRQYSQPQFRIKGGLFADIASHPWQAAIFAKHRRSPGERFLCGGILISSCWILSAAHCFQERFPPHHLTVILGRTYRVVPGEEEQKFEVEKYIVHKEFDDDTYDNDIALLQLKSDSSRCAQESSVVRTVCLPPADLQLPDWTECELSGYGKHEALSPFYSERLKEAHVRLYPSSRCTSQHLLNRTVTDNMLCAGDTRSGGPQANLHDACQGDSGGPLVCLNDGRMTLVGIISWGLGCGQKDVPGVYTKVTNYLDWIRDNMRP
T2 sequence (P00747 20-810 limits assumed): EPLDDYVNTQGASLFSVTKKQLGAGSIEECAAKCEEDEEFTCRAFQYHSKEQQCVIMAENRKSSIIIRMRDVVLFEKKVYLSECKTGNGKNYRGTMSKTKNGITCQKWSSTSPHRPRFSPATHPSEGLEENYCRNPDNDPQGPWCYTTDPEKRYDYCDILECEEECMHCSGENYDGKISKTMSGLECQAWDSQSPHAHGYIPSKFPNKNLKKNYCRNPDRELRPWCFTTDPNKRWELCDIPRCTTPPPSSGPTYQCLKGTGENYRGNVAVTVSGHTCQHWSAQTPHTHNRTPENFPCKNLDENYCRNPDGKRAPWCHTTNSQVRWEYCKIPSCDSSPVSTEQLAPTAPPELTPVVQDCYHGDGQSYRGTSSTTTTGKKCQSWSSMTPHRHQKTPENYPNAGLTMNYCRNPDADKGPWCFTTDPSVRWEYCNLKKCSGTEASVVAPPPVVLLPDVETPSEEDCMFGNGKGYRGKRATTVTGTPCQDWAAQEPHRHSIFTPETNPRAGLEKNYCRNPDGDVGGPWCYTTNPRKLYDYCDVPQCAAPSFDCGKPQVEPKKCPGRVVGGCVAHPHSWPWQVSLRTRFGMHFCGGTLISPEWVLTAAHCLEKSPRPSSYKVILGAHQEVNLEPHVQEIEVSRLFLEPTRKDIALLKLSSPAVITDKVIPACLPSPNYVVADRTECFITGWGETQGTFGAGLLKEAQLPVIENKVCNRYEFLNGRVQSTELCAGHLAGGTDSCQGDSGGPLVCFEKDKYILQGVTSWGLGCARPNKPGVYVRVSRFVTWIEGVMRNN

O=c1[nH]nc(-c2cn(C3CCNCC3)nn2)o1 [compound 5]
percentage of tPA's activity ([1]; 0.5 mM): 93.70% | percentage of tPA's activity ([1]; 1 mM): 91.18% | percentage of tPA's activity ([1]; 5 mM): 88.78% | percentage of tPA's activity ([1]; 10 mM): 89.39% | percentage of tPA's activity ([1]; 15 mM): 103.70% | activity on tPA's active site ([1]; at the tested concentrations): no activity | MTD at 14 days [2]: 300 mg/kg | effect on clot formation [3]: do not have any effect | Clinical signs observed: N of dogs with Mild vomiting ([4]; female, Beagle): 1 | Cmax ([4]; female, Beagle): 15800 ng/mL | Kel ([4]; female, Beagle): 0.23 h‐1 | Tmax ([4]; female, Beagle): 4.8 min | half-life ([4]; female, Beagle): 3.04 h | Morbidity ([4]; female, Beagle): 0 number of dogs | Mortality ([4]; female, Beagle): 0 number of dogs | Clinical signs observed: N of dogs with Mild vomiting ([4]; male, Beagle): 1 | Cmax ([4]; male, Beagle): 14000 ng/mL | Kel ([4]; male, Beagle): 0.24 h‐1 | Tmax ([4]; male, Beagle): 4.8 min | half-life ([4]; male, Beagle): 2.88 h | Morbidity ([4]; male, beagle): 0 number of dogs | Mortality ([4]; male, beagle): 0 number of dogs | potency relative to TXA in catalyzing plasminogen's activation by tPA ([5]; from concentration enhancing tPA's activity by 50%): more than 50 times | concentration at which compound increased tPA's activity by 50% ([5]; plasminogen-tPA isolated system, absence of fibrin): 4.03 µM | solubility [6]: 20 mM (≈ 4720 µg/mL)
